Experiment in all cases: DTP human tumour cell line panel, 48 h
In test [1] the test system is A549 NSCLC.
In test [2] the test system is HCC-2998 colon.
The subject of test [3] is HCT-116 colon.
Test [4] relates to HT29 colon.
Test [5] relates to IGROV1 ovarian.
Test [6] relates to LOX IMVI melanoma.
Test [7] deals with MCF7 breast.
The test system of test [8] is MOLT-4 leukemia.
Test [9] deals with OVCAR-3 ovarian.
The test system of test [10] is OVCAR-5 ovarian.
Test [11] deals with OVCAR-8 ovarian.
For test [12], the system named is SF-539 CNS.
The subject of test [13] is SK-MEL-5 melanoma.
The test system of test [14] is SK-OV-3 ovarian.
The subject of test [15] is SNB-75 CNS.
Test [16] deals with U251 CNS.
In test [17] the test system is A498 renal.
For test [18], the system named is MALME-3M melanoma.
Test [19] concerns HL-60(TB) leukemia.

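Grown in 96-well plates, cells were treated for 48 hours with each compound at five concentrations. Insufficient inhibition: endpoint recorded as highest concentration tested. At the TGI there is no net growth.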

Consider `O=C(Oc1ccc(C(c2c(O)c3ccccc3oc2=O)c2c(O)c3ccccc3oc2=O)cc1)c1ccc(C(=O)c2ccccc2)cc1`, for which the TGI (usually the concentration giving total growth inhibition) in test [1] is 55.8 µM; in test [2], 36 µM; in test [3], more than 100 µM; in test [4], 31.8 µM; in [5] it was 36.6 µM; in test [6], 52.1 µM. In addition, the TGI in test [7] is more than 100 µM; in test [8], 41.3 µM; in test [9] it was 36.5 µM; in [10], 38.3 µM; in [11], 33.8 µM; in test [12] it was 36.5 µM. Also, the TGI came to 75 µM in test [13], 33.4 µM in test [14], 32.4 µM in test [15] and 54.7 µM in test [16].
Turning to `C#CCNCC(=O)O`, the TGI in test [17], in test [1], in [2], in test [3], in [4] and in [5] was more than 100 µM throughout. For the same compound, the TGI in test [18], in test [7], in test [8], in [9], in test [10] and in test [11] was more than 100 µM throughout. Further, the TGI in test [12], in [13], in test [14] and in [16] was more than 100 µM throughout.
On to `CC(=O)Nc1ccc2cc(C#N)c(=O)[nH]c2n1`, for which the TGI in test [17], in test [1], in test [2], in [3], in test [5] and in test [6] was more than 100 µM in each case. Moreover, the TGI in test [18], in [7], in test [8], in test [9], in test [10] and in test [11] was more than 100 µM each time. Besides, the TGI in test [12], in [13], in test [14], in test [15] and in [16] was more than 100 µM throughout.
Take `CCc1cccc(C(C)C)c1NC(=O)C(=O)Nn1c(=S)[nH]c2ccccc2c1=O`: the TGI in [17], in [1], in [2], in [3], in [4] and in test [5] was more than 100 µM each time. Moreover, the TGI in test [6], in test [18], in test [7], in test [8], in [9] and in [10] was more than 100 µM each time. In addition, the TGI in test [11], in test [12], in [13], in test [14], in [15] and in test [16] was more than 100 µM each time.
On to `O=c1nc(N2CCCCC2)sc2[nH]c3ccccc3c12`, for which the TGI in [17], in test [1], in test [19], in [4], in test [5] and in [6] was more than 100 µM each time. For the same compound, the TGI in [18] is more than 100 µM; in test [8] it was more than 100 µM; in test [9], more than 100 µM; in test [10] it was 24.8 µM; in test [11], more than 100 µM; in [12], more than 100 µM. Besides, the TGI in test [13], in test [14], in [15] and in test [16] was more than 100 µM throughout.
Take `O=C1CC(=O)NC(=NN2C(=O)CSC2c2ccc(Cl)cc2)N1` (stereo unspecified): the TGI in test [17], in test [1], in test [2], in test [3], in [4] and in test [5] was more than 100 µM in each case. The TGI in [18], in [7], in test [8], in test [9], in test [10] and in test [11] was more than 100 µM in each case. Moreover, the TGI in [12], in test [13], in test [14], in test [15] and in test [16] was more than 100 µM each time.
`CCCN(CCCC(NC(C)=O)C(=O)NCc1ccccc1)C(=O)N(C)N=O` (stereo unspecified): the TGI in [17], in test [1], in [2], in test [3], in [4] and in test [5] was more than 100 µM throughout. The TGI in [6], in test [18], in test [8], in test [9], in test [10] and in test [11] was more than 100 µM each time. For the same compound, the TGI in test [12], in test [13], in test [14], in test [15] and in test [16] was more than 100 µM in each case.
Turning to `O=S(=O)(Cc1ccccc1)c1nnc(S(=O)(=O)c2ccc(Cl)cc2)s1`, the TGI was 43.6 µM in [17]; 68.1 µM in test [1]; 36 µM in [3]; 60.7 µM in test [4]; more than 100 µM in [7]; more than 100 µM in test [8]. The TGI came out at 58.6 µM in test [9]; 56.8 µM in test [10]; 42.8 µM in test [11]; 63.3 µM in [12]; 33.6 µM in test [13]; 47.8 µM in test [14]. Besides, the figures for the TGI in [15] and in [16] were 32.5 µM and 94.9 µM, respectively.

These data come from PubChem BioAssay (NCI).
